ChEMBL document CHEMBL5257129, “Design, synthesis, and anticancer evaluation of arylurea derivatives as potent and selective type II irreversible covalent FGFR4 inhibitors” (Bioorg Med Chem, 2023)

Key:
Huh-7 [1] = test: Antiproliferative activity against human Huh-7 cells assessed as inhibition of cell growth at 10 uM measured after 72 hrs by CCK8 assay; assay type: functional
Hep 3B2 [2] = test: Antiproliferative activity against human Hep3B cells assessed as inhibition of cell growth at 10 uM measured after 72 hrs by CCK8 assay; assay type: functional
Huh-7 [3] = test: Antiproliferative activity against human Huh-7 cells assessed as inhibition of cell growth measured after 72 hrs by CCK8 assay; assay type: functional, cell-based; settings: Huh-7, 72 h
Hep 3B2 [4] = test: Antiproliferative activity against human Hep3B cells assessed as inhibition of cell growth measured after 72 hrs by CCK8 assay; assay type: functional, cell-based
[5] = Half life in Sprague-Dawley rat at 5 mg/kg, iv measured upto 24 hrs by LC/MS/MS analysis; assay type: ADME, organism-based; settings: in vivo
[6] = Tmax in Sprague-Dawley rat at 5 mg/kg, iv measured upto 24 hrs by LC/MS/MS analysis; assay type: ADME, organism-based; settings: in vivo
[7] = Initial plasma concentration in Sprague-Dawley rat at 5 mg/kg, iv measured upto 24 hrs by LC/MS/MS analysis; assay type: ADME, organism-based
[8] = Cmax in Sprague-Dawley rat at 5 mg/kg, iv measured upto 24 hrs by LC/MS/MS analysis; assay type: ADME, organism-based; parameters: time < 24 hrs, dose 5 mg/kg, route iv; settings: in vivo
[9] = AUC(0 to t) in Sprague-Dawley rat at 5 mg/kg, iv measured upto 24 hrs by LC/MS/MS analysis; assay type: ADME, organism-based; parameters: time < 24 hrs, dose 5 mg/kg, route iv; settings: in vivo
[10] = AUC(0 to infinity) in Sprague-Dawley rat at 5 mg/kg, iv measured upto 24 hrs by LC/MS/MS analysis; assay type: ADME, organism-based; parameters: dose 5 mg/kg, time < 24 hrs, route iv; settings: in vivo
[11] = Apparent volume of distribution in Sprague-Dawley rat at 5 mg/kg, iv measured upto 24 hrs by LC/MS/MS analysis; assay type: ADME, organism-based; settings: in vivo, read-out: Vz
[12] = Clearance in Sprague-Dawley rat at 5 mg/kg, iv measured upto 24 hrs by LC/MS/MS analysis; assay type: ADME, organism-based; settings: in vivo
[13] = Mean residence time (0 to t) in Sprague-Dawley rat at 5 mg/kg, iv measured upto 24 hrs by LC/MS/MS analysis; assay type: ADME, organism-based; settings: in vivo
[14] = Half life in Sprague-Dawley rat at 20 mg/kg, po measured upto 24 hrs by LC/MS/MS analysis; assay type: ADME, organism-based; settings: in vivo
[15] = Tmax in Sprague-Dawley rat at 20 mg/kg, po measured upto 24 hrs by LC/MS/MS analysis; assay type: ADME, organism-based; settings: in vivo
[16] = Cmax in Sprague-Dawley rat at 20 mg/kg, po measured upto 24 hrs by LC/MS/MS analysis; assay type: ADME, organism-based; parameters: dose 20 mg/kg, time < 24 hrs, route po; settings: in vivo
[17] = AUC(0 to t) in Sprague-Dawley rat at 20 mg/kg, po measured upto 24 hrs by LC/MS/MS analysis; assay type: ADME, organism-based; parameters: dose 20 mg/kg, time < 24 hrs, route po; settings: in vivo
[18] = AUC(0 to infinity) in Sprague-Dawley rat at 20 mg/kg, po measured upto 24 hrs by LC/MS/MS analysis; assay type: ADME, organism-based; parameters: dose 20 mg/kg, time < 24 hrs, route po; settings: in vivo
[19] = Mean residence time (0 to t) in Sprague-Dawley rat at 20 mg/kg, po measured upto 24 hrs by LC/MS/MS analysis; assay type: ADME, organism-based; settings: in vivo

| IC50 (Huh-7 [3]) | Compound | inhibition at 10 µM (Huh-7 [1]) | inhibition at 10 µM (Hep 3B2 [2]) | IC50 (Hep 3B2 [4]) | other results |
| --- | --- | --- | --- | --- | --- |
|  | CC#CC(=O)Nc1ccc(Oc2ccc(NC(=O)Nc3ccc(CN4CCN(C)CC4)c(C(F)(F)F)c3)c(C)c2)cn1 | 93.2% | 92.3% |  |  |
|  | C=CC(=O)Nc1ccc(-c2ccc(NC(=O)Nc3ccc(CN4CCN(C)CC4)c(C(F)(F)F)c3)cc2C)cn1 | 96.9% | 95.3% |  |  |
|  | C=CC(=O)Nc1ccc(Oc2ccc(NC(=O)Nc3ccc(CN4CCN(C)CC4)c(C(F)(F)F)c3)c(C)c2)cn1 | 87.2% | 84.7% |  |  |
|  | C=CC(=O)Nc1ccc(-c2ccc(NC(=O)Nc3ccc(CN4CCN(C)CC4)c(C(F)(F)F)c3)nc2)cn1 | 59% | 67% |  |  |
| 250 nM | C=CC(=O)Nc1ccc(Oc2ccc(NC(=O)Nc3ccc(CN4CCN(C)CC4)c(C(F)(F)F)c3)cc2)cn1 | 97.7% | 91% | 220 nM | half-life [5]: 4.75 h; Tmax [6]: 4.98 min; C0 at 24 h [7]: 4930 ng/mL; Cmax [8]: 4190 ng/mL; AUC(0-t) at 24 h [9]: 4240 ng·h/mL; AUC(0-inf) [10]: 4260 ng·h/mL; Vd [11]: 8.1 L/kg; clearance [12]: 19.6 mL/min/kg; MRT last at 24 h [13]: 1.25 h; half-life [14]: 3.12 h; Tmax [15]: 2.67 h; Cmax [16]: 23.7 ng/mL; AUC(0-t) at 24 h [17]: 140 ng·h/mL; AUC(0-inf) [18]: 149 ng·h/mL; MRT last at 24 h [19]: 3.99 h |
| 990 nM | Cc1ccc(C(=O)Nc2ccc(CN3CCN(C)CC3)c(C(F)(F)F)c2)cc1C#Cc1cnc2cccnn12 [PONATINIB] | 90.5% | 95.5% | 720 nM |  |
| 3380 nM | C=C(F)C(=O)Nc1ccc(-c2ccc(NC(=O)Nc3ccc(CN4CCN(C)CC4)c(C(F)(F)F)c3)c(C)c2)cn1 | 93% | 91.2% | 3240 nM |  |
|  | C=CC(=O)Nc1ccc(-c2cnc(NC(=O)Nc3ccc(CN4CCN(C)CC4)c(C(F)(F)F)c3)cn2)cn1 | 84.5% | 86.1% |  |  |
|  | C=CC(=O)Nc1ccc(-c2ccc(NC(=O)Nc3ccc(CN4CCN(CC)CC4)c(C(F)(F)F)c3)c(C)c2)cn1 | 80.3% | 85.4% |  |  |
|  | C=CC(=O)Nc1ccc(-c2ccc(NC(=O)Nc3ccc(CN4CCN(C)CC4)c(C(F)(F)F)c3)cc2)cn1 | 94.8% | 95.8% |  |  |
| 3350 nM | C=CC(=O)Nc1ccc(-c2ccc(NC(=O)Nc3ccc(CN4CCN(C)CC4)c(C(F)(F)F)c3)c(C)c2)cn1 | 94.8% | 94.6% | 3180 nM |  |
|  | C=CC(=O)Nc1ccc(-c2ccc(NC(=O)Nc3ccc(CN4CCN(C)CC4)c(C(F)(F)F)c3)cc2F)cn1 | 96.7% | 95.7% |  |  |
| 1020 nM | C/C=C/C(=O)Nc1ccc(Oc2ccc(NC(=O)Nc3ccc(CN4CCN(C)CC4)c(C(F)(F)F)c3)c(C)c2)cn1 | 86.7% | 87% | 1120 nM |  |
| 1620 nM | C=CC(=O)Nc1ccc(-c2ccc(NC(=O)Nc3ccc(CN4CCN(C)CC4)c(C(F)(F)F)c3)c(Cl)c2)cn1 | 91.4% | 99.1% | 1270 nM |  |
| 21500 nM | Cc1cc(-c2ccc(NC(=O)CCl)nc2)ccc1NC(=O)Nc1ccc(CN2CCN(C)CC2)c(C(F)(F)F)c1 | 80.9% | 87.6% | 22100 nM |  |
